# Data from patent US20220380385A1, “PYRIMIDINE FIVE-MEMBERED NITROGEN HETEROCYCLIC DERIVATIVE, PREPARATION METHOD THEREOF AND PHARMACEUTICAL USE THEREOF” (TUOJIE BIOTECH(SHANGHAI) CO., LTD., priority 2019, published 2022).
# How the values were obtained:
# [1] = In vivo pharmacokinetics in rats (gavage); set-up: species or system SD rats; settings: original drug, rat, 5 mpk
# Protocol: (§1) Rats were used as the test animals. The plasma drug concentration at different times after the rats were given the compounds of the invention by gavage was determined by using the LC/MS/MS method. The in vivo pharmacokinetic behavior of the compounds of the present invention in rats was studied, and pharmacokinetic characteristics thereof were evaluated.
# Test animals: 3 healthy, 6-8 weeks old male SD rats in each group
# A certain amount of drug was weighed, and 0.5% by mass of hypromellose, 0.1% by volume of Tween 80 and 99.4% by volume of water were added thereto to formulate a white suspension at 1 mg/mL.
# SD rats were fasted overnight, then the drug was administered by gavage. The dosage of reference 1 was 7.5 mg/kg, and the dosage of Example 1 was 5 mg/kg.
# (§2) Rats were administered the compounds of the present invention by gavage. At 0.25, 0.5, 1, 2, 4, 8 and 24 hours after administration, 0.2 mL of blood was collected from the jugular vein and placed in a test tube containing EDTA-K2. The tube was centrifuged at 4° C., 4000 rpm for 5 minutes to separate the plasma, which was stored at −75° C.
# Determination of the content of the test compounds in rat plasma after administration of different concentrations of drugs by gavage: 50 μL of rat plasma at each time after administration was taken, and 200 μL of a solution of the internal standard dexamethasone in acetonitrile (50 ng/mL). The mixture was mixed by vortexing for 30 seconds, centrifuged at 4° C., 4700 rpm for 15 minutes. The supernatant of the plasma samples were collected and diluted three times with water, and 2.0 μL was taken for the LC/MS/MS analysis.
# [2] = In vivo pharmacokinetics in cynomolgus monkeys (gavage); settings: male, plasma, po, 5 mg/kg, original drug, cynomolgus monkey, 5 mpk
# Protocol: as §1, with “Cynomolgus monkeys” for “Rats”, “cynomolgus monkeys” for “rats”
# Test animals: 3 healthy, 2-5 years old male cynomolgus monkeys in each group;
# Administration by gavage: a certain amount of drug was weighed, and 0.5% by mass of hypromellose, 0.1% by volume of Tween 80 and 99.4% by volume of water were added thereto to formulate a white suspension at 1 mg/mL.
# The cynomolgus monkeys were fasted overnight, and then the drug was administered by gavage at a dose of 5 mg/kg.
# as §2, with “Cynomolgus monkeys were” for “Rats were”, “the peripheral” for “the jugular”, “at 2 to 8°” for “at 4°”, “C., 2000” for “C., 4000”, “for 10” for “for 5”
# Determination of the content of the test compounds in cynomolgus monkey plasma after administration of different concentrations of drugs by gavage: 55 μL of cynomolgus monkey plasma at each time after administration was taken, and 200 μL of a solution of the internal standard verapamil or dexamethasone in acetonitrile. The mixture was mixed by vortexing for 30 seconds, centrifuged at 4° C., 3900 rpm for 15 minutes. The supernatant of the plasma samples were collected and diluted three times with water, and 15 μL was taken for LC/MS/MS analysis.
# CYP1A2 = target: T1, CYP1A2 (Homo sapiens, UniProt P05177); experiment: CYP inhibition in mixed human liver microsomes, CYP1A2 (phenacetin); format: in vitro ADME
# T1 construct: Mixed human liver microsomes from 150 donors; tissue Corning 452117; host or cells: pooled human liver microsomes (150 donors)
# T1 sequence (P05177 1-516): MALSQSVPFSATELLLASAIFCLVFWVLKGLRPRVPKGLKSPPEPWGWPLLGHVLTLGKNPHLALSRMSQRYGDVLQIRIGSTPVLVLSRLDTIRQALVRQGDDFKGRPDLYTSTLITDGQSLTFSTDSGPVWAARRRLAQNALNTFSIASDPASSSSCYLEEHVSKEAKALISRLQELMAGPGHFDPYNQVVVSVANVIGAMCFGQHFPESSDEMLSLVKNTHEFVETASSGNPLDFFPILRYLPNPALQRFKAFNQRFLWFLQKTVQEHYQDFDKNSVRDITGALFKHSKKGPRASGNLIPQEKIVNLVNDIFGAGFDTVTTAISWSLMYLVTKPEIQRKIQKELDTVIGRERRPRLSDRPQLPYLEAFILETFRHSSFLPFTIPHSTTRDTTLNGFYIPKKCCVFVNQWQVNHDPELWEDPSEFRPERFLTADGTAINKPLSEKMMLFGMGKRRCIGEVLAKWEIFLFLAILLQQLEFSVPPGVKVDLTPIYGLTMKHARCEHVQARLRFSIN
# Protocol: (§3) Mixed human liver microsomes from 150 donors (purchased from Corning, catalog number 452117) were used to evaluate the representative substrate metabolic responses of the five main human CYP subtypes (CYP1A2, CYP2C9, CYP2C19, CYP2D6 and CYP3A4/5). The influence of different concentrations of test compounds on the metabolic responses of phenacetin (CYP1A2), diclofenac sodium (CYP2C9), S-mephenytoin (CYP2C19), bufurolol hydrochloride (2D6) and midazolam (CYP3A4/5) was determined by liquid chromatography tandem mass spectrometry (LC/MS/MS).
# (§4) 200 μL of the reaction system (100 mmol/L phosphate buffer, pH 7.4, containing 0.3% DMSO, 0.6% acetonitrile and 0.1% methanol by volume respectively) with 30 µM phenacetin, 10 μM diclofenac sodium, 35 μM S-mephenytoin, 5 μM bufurolol hydrochloride, 3 μM midazolam, 1 mM NADPH, test compound (at a concentration of 0.1, 0.3, 1, 3, 10 and 30 μmol/L respectively) or positive compound or blank control and mixed human liver microsomes (0.2 mg/mL) was incubated at 37° C. for 5 minutes. […]
# (§5) The peak area was calculated based on the chromatograms. The residual activity ratio (%) was calculated using the following equation: […]
# (§6) The CYP median inhibitory concentration (IC50) was calculated by Excel XLfit 5.3.1.3.
# CYP2C9 = target: T2, CYP2C9 (Homo sapiens, UniProt P11712); experiment: CYP inhibition in mixed human liver microsomes, CYP2C9 (diclofenac sodium); format: in vitro ADME
# T2 construct: Mixed human liver microsomes from 150 donors; tissue Corning 452117; host or cells: pooled human liver microsomes (150 donors)
# Protocol: as §3, §4, §5, §6
# CYP2C19 = target: T3, CYP2C19 (Homo sapiens, UniProt P33261); experiment: CYP inhibition in mixed human liver microsomes, CYP2C19 (S-mephenytoin); format: in vitro ADME
# T3 construct: Mixed human liver microsomes from 150 donors; tissue Corning 452117; host or cells: pooled human liver microsomes (150 donors)
# Protocol: as §3, §4, §5, §6
# CYP2D6 = target: T4, CYP2D6 (Homo sapiens, UniProt P10635); experiment: CYP inhibition in mixed human liver microsomes, CYP2D6 (bufurolol hydrochloride); format: in vitro ADME
# T4 construct: Mixed human liver microsomes from 150 donors; tissue Corning 452117; host or cells: pooled human liver microsomes (150 donors)
# Protocol: as §3, §4, §5, §6
# T3 sequence (P33261 whole entry): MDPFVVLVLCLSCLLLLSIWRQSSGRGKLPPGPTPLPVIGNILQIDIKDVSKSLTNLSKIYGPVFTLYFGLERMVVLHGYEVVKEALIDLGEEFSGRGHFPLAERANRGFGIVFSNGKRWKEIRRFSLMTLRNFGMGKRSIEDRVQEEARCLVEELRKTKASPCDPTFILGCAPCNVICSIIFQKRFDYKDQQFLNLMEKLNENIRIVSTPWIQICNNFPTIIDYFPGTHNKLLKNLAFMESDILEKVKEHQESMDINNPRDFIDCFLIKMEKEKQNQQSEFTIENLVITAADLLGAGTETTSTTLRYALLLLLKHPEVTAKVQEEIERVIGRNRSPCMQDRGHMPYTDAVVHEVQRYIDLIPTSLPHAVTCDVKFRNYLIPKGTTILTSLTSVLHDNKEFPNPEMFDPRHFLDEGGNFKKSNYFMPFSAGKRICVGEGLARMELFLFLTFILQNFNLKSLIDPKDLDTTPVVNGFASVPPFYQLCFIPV
# T2 sequence (P11712 whole entry): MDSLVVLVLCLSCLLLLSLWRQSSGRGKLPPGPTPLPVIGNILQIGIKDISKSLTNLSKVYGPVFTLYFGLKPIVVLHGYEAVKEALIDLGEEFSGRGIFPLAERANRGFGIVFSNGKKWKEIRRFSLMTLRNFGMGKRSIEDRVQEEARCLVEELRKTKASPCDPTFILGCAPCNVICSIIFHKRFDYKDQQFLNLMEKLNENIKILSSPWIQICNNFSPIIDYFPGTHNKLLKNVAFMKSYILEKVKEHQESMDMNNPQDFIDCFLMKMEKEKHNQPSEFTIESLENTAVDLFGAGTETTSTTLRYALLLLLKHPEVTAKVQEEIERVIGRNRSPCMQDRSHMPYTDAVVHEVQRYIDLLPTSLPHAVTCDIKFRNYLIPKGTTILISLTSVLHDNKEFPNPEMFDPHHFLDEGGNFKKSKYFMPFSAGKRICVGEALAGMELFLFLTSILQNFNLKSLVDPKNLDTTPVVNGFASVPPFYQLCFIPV
# T4 sequence (P10635 whole entry): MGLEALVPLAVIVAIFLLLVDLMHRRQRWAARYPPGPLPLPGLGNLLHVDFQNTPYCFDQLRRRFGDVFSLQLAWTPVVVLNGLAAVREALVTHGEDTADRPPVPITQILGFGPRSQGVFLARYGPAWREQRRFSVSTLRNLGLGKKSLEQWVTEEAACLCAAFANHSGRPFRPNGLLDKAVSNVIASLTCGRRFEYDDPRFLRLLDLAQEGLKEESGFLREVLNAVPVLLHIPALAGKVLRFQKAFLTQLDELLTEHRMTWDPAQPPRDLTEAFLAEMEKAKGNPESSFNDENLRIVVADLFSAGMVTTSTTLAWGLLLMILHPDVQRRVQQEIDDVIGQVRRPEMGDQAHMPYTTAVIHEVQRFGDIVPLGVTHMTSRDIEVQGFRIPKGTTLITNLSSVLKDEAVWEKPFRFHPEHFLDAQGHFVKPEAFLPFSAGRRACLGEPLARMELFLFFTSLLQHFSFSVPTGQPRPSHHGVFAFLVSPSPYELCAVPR
smiles,measurement,setting,value
"[2H]C([2H])([2H])Nc1nccc(Sc2c(C)nc(N3CCC4(CC3)Cc3ncccc3[C@H]4N)n3ccnc23)c1Cl [Example 3, (S)-1′-(8-((3-Chloro-2-((methyl-d3)amino)pyridin-4-yl)thio)-7-methylimidazo[1,2-c]pyrimidin-5-yl)-5,7-dihydrospiro[cyclopenta[b]pyridine-6,4′-piperidin]-5-amine]",AUC,"[1]; male, SD, plasma, po, 5 mg/kg, read-out: Area under curve AUC",3820 ng·h/mL
same,Cmax,"[1]; male, SD, plasma, po, 5 mg/kg, read-out: Maximum blood conc. Cmax",445 ng/mL
same,Area under curve of unit dose AUC/D,[1],764 ng*h/mL per mg/kg
same,AUC,[2]; read-out: Area under curve AUC,72300 ng·h/mL
same,Cmax,[2]; read-out: Maximum blood conc. Cmax,12200 ng/mL
same,IC50,CYP1A2,14.7 µM
same,IC50,CYP2C9,> 20 µM
same,IC50,CYP2C19,> 20 µM
same,IC50,CYP2D6,> 20 µM
